Publication PMC6332036, “The Guareschi Pyridine Scaffold as a Valuable Platform for the Identification of Selective PI3K Inhibitors” (Molecules, 2015)

Experiments:
[1] = target: T1, PI3Kβ (Homo sapiens, UniProt P42338); assay: ADP-Glo luminescent lipid kinase assay, PI3Kβ; type: biochemical; conditions: recombinant enzyme 30 ng, 10 μM ATP, 1 h, room temperature; standard error (SE)
T1 construct: purchased JenaBioscience PR-344
Experimental: (§1) All the synthesized compounds were then tested in vitro for their ability to inhibit the kinase activity of the PI3Kα, PI3Kβ, PI3Kγ, and PI3Kδ isoforms in a luminescent kinase assay (ADP-GloTM kinase assay) using purified, recombinant human enzymes and ATP. IC50 values were subsequently determined.
(§2) To evaluate the ability of each compound of formula (9a–h) to inhibit the lipid kinase activity of each PI3K isoform, 30 ng of PI3Kα, β, γ, and δ recombinant protein (purchased from JenaBioscience—Jena, Germany; PI3Kα #PR-335, PI3Kβ #PR-344, PI3Kγ #PR-343, PI3Kδ #PR-345) were incubated with at least five different concentrations (from 0.016 to 10 µM) of the compounds (9a–h). The phosphorylation reaction was then started by adding 10 μM of ATP, and 10 µg of lipid micelles containing the appropriate substrate phosphatidylinositol and the phosphatidylserine.
(§3) After 30 min of incubation (1 h for PI3Kβ recombinant protein) at room temperature, the reaction was stopped, and the amount of ADP metabolite was measured with a luminescent kinase assay, ADP-GloTM Kinase Assay (purchased from Promega—USA #V9101). The luminescent signal positively correlated with the formed ADP and, therefore, with the kinase activity. The percentage of kinase activity was calculated over the control samples, containing only dimethyl sulfoxide (DMSO). To derive the IC50 values for each assayed compound (9a–h), all data were plotted on a dose response curve (Graph Pad Software) and the IC50 was calculated by using the nonlinear regression fit (equation (log agonist) vs. response—Sigmoidal dose response). The IC50 was representative of two different experiments performed in triplicate.

[2] = target: T2, PI3Kδ (Homo sapiens, UniProt O00329); assay: ADP-Glo luminescent lipid kinase assay, PI3Kδ; type: biochemical; conditions: recombinant enzyme 30 ng, 10 μM ATP, 30 min, room temperature; standard error (SE)
T2 construct: purchased JenaBioscience PR-345
Experimental: as §1, §2, §3

[3] = target: T3, PI3Kα (Homo sapiens, UniProt P42336); assay: ADP-Glo luminescent lipid kinase assay, PI3Kα; type: biochemical; conditions: recombinant enzyme 30 ng, 10 μM ATP, 30 min, room temperature; standard error (SE)
T3 construct: purchased JenaBioscience PR-335
Experimental: as §1, §2, §3

[4] = target: T4, PI3Kγ (Homo sapiens, UniProt P48736); assay: ADP-Glo luminescent lipid kinase assay, PI3Kγ; type: biochemical; conditions: recombinant enzyme 30 ng, 10 μM ATP, 30 min, room temperature; standard error (SE)
T4 construct: purchased JenaBioscience PR-343
Experimental: as §1, §2, §3

[5] = test system: PI3Kα signaling pathway; assay: Cell-based assay: P-Akt in insulin-stimulated NIH3T3 cells (Western blot); conditions: Mus musculus, 1.5 h pre-treatment, 5 min stimulation with 1 μM insulin, SE ± 0.6, read-out: IC50, residual P-Akt
Experimental: Subsequently, compound 9b was analyzed on cell-based assay in order to evaluate its ability to inhibit the PI3Kα signaling pathway on cells. It is well established that insulin signaling is mostly regulated by PI3Kα [29]. The activated insulin receptor triggers PI3Kα activity mainly by binding and phosphorylating adaptor proteins of the IRS (insulin receptor substrate) family. Once activated, PI3Kα produces the PtdIns(3,4,5)P3 lipid product, which in turn mediates the activation of downstream effectors such as Akt. Thus, phosphorylation of Akt results as a key event of the PI3Kα activation. […] A dose response curve and an IC50 value were determined.
NIH3T3 cells were cultured in […] (DMEM) (GIBCO-Thermo Fisher Scientific Inc., Waltham, MA, USA) supplemented with 10% Fetal Bovine Serum (FBS) (GIBCO-Thermo Fisher Scientific Inc.), 100 units/mL penicillin (GIBCO-Thermo Fisher Scientific Inc.), and 100 μg/mL streptomycin (GIBCO- Thermo Fisher Scientific Inc.). […] The P-Akt production is detected by Western blot analysis and quantified with ChemiDoc™ XRS system. From the absolute values, a percentage of residual P-Akt is calculated for each inhibitor concentration by using the control vehicle as 100%. […]

T1 sequence (P42338 whole entry): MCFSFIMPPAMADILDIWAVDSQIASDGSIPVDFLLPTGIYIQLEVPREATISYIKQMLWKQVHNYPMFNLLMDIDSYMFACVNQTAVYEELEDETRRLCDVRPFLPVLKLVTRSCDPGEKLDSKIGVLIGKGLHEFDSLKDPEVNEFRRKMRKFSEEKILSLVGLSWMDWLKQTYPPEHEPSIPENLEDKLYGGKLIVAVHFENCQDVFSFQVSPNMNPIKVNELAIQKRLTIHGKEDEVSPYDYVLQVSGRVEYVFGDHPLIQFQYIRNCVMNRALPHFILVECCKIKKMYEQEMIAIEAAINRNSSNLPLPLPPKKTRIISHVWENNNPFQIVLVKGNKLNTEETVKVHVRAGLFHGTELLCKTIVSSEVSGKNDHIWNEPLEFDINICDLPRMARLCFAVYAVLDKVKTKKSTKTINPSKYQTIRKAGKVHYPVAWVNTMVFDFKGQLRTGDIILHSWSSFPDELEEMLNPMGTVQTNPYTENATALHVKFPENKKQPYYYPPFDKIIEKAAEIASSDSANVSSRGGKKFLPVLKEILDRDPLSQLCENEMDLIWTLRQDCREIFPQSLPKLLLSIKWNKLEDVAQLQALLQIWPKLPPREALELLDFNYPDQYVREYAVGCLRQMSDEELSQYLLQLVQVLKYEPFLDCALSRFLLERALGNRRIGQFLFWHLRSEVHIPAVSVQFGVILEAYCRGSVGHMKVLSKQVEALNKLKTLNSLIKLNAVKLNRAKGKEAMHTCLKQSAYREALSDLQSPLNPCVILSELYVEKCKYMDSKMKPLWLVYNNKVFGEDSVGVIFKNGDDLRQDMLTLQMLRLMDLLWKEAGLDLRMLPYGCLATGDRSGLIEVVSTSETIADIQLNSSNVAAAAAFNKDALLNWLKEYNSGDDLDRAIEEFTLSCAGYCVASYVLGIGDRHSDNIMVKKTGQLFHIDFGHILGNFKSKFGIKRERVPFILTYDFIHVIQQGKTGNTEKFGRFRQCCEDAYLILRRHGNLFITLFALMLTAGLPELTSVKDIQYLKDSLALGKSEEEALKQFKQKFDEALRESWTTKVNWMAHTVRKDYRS
T1 sequence (P27986 whole entry partner): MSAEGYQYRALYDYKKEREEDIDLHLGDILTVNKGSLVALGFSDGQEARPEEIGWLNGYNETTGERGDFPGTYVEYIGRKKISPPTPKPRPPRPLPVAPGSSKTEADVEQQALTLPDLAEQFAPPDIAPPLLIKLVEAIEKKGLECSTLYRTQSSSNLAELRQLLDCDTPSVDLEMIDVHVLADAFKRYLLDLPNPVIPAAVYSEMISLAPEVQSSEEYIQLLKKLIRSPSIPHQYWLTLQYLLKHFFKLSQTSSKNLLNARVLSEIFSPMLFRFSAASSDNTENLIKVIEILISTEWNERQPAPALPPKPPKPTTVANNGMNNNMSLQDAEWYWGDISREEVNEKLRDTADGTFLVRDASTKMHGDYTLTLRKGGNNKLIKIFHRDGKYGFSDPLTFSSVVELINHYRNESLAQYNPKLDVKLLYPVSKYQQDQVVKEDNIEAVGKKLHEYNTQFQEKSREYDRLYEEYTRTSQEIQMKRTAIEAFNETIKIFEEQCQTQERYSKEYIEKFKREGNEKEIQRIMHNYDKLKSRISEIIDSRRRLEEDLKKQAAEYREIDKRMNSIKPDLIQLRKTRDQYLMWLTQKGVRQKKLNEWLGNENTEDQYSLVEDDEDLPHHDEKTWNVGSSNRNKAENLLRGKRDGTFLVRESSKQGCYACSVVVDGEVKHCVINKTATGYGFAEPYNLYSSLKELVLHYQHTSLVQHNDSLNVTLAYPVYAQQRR
T3 sequence (P42336 whole entry): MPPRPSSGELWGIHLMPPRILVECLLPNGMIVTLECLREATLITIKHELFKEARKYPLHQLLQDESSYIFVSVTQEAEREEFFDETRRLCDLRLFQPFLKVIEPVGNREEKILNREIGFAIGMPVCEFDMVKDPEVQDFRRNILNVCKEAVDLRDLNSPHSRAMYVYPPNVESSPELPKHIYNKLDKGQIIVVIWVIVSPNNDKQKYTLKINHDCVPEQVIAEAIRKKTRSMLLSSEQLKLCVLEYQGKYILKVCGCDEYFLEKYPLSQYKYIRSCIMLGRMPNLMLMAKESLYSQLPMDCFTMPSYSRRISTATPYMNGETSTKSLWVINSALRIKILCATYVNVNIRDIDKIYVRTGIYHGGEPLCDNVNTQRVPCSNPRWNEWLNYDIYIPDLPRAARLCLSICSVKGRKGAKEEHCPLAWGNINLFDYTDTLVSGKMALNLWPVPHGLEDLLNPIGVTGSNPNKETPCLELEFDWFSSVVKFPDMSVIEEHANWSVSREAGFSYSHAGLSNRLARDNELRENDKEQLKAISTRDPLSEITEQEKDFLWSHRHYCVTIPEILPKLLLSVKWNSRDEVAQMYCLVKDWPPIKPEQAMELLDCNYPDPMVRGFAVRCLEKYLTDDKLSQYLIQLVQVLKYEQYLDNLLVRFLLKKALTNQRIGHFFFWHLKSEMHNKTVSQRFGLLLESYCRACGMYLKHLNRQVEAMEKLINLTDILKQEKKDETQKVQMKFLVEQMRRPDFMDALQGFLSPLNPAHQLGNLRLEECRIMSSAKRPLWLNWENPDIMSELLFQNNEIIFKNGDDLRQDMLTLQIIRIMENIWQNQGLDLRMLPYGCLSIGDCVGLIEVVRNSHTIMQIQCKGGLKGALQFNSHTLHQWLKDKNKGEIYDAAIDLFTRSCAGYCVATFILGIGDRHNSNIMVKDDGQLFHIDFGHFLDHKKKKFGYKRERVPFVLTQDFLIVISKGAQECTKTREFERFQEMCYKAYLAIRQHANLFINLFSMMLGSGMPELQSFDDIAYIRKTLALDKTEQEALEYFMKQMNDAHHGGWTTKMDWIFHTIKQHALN
T3 sequence (P27986 whole entry partner): as the sequence (P27986 whole entry partner) above
T4 sequence (P48736 whole entry): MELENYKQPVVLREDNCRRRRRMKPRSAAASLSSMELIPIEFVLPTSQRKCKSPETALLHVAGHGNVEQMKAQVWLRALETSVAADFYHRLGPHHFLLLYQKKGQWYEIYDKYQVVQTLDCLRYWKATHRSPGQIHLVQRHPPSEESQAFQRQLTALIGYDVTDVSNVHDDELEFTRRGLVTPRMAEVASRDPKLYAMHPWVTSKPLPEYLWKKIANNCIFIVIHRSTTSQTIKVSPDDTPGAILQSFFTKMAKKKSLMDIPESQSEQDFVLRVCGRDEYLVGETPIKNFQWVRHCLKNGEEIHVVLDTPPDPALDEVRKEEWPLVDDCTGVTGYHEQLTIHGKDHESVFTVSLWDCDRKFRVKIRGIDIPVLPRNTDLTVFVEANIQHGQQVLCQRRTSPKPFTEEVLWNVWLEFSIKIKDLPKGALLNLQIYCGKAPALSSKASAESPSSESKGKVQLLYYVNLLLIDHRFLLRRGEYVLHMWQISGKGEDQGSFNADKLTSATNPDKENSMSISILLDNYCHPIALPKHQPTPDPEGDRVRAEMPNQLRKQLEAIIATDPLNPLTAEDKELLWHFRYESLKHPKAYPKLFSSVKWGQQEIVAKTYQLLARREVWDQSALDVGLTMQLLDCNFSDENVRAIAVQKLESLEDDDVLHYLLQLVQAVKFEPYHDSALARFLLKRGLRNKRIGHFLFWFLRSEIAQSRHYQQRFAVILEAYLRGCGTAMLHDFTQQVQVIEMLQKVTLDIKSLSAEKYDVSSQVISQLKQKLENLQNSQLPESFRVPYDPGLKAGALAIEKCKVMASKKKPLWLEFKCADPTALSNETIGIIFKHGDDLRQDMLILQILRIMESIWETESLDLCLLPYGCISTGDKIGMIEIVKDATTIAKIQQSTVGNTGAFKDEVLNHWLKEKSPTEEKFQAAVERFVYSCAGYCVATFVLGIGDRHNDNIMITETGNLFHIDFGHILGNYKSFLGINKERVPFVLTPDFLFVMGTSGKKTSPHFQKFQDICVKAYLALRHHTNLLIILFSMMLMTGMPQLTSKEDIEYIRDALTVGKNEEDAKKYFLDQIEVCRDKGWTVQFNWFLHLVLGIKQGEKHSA
T2 sequence (O00329 whole entry): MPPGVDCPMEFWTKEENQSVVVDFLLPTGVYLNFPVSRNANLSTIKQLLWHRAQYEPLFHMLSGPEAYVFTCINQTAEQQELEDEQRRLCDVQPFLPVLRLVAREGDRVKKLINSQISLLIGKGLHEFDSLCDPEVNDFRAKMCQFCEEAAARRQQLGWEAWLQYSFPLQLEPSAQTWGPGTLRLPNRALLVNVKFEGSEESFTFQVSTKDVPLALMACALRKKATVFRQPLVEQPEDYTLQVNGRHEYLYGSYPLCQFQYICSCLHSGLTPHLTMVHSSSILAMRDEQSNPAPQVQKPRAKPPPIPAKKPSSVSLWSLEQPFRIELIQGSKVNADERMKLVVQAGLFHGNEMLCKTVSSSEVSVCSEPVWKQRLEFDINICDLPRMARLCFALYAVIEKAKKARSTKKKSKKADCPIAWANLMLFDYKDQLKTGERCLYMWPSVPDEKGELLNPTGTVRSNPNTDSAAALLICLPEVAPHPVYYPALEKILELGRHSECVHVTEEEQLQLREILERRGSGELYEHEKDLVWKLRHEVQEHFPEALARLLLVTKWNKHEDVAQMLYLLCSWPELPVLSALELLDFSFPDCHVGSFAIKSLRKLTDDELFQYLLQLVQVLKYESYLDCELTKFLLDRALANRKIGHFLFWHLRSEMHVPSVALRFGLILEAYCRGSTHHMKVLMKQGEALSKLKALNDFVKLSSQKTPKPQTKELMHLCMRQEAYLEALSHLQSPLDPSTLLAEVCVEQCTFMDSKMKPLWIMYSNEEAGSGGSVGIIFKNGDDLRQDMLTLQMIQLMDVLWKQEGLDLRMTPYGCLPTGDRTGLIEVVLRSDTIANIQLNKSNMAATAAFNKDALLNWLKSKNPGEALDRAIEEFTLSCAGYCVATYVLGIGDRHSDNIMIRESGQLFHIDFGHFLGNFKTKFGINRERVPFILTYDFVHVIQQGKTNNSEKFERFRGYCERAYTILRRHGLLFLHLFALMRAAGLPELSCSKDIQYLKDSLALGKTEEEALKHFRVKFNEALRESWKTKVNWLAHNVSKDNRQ
T2 sequence (P27986 whole entry partner): as the sequence (P27986 whole entry partner) above

Compound	melting point	IC50 [1] [µM]	IC50 [2] [µM]	IC50 [3] [µM]	IC50 [4] [µM]	IC50 [5] [µM]
COc1ccc(-c2cc(N3CCOCC3)nc(-c3cccc(O)c3)c2C#N)cc1OC [Compound 9e]	142 to 144 °C	6.48	0.9	0.83	2.91	–
Cc1ccc(-c2cc(N3CCOCC3)nc(-c3cccc(O)c3)c2C#N)cc1C [Compound 9f]	117 to 120 °C (dec.)	> 10	1.33	> 10	4.43	–
N#Cc1c(-c2ccncc2)cc(N2CCOCC2)nc1-c1cccc(O)c1 [Compound 9g]	290 to 292 °C (dec.)	> 10	0.85	1.23	1.56	–
N#Cc1c(-c2cccnc2)cc(N2CCOCC2)nc1-c1cccc(O)c1 [Compound 9h]	239 to 242 °C (dec.)	> 10	0.71	0.98	2.43	–
Cc1cc(N2CCOCC2)nc(-c2cccc(O)c2)c1C#N [Compound 10, 2-(3-Hydroxyphenyl)-6-morpholino-4-methylnicotinonitrile]	195 to 197 °C	1.55	0.42	1.18	1.05	–

Results, then the compound that gave them:

melting point	IC50 [1] [µM]	IC50 [2] [µM]	IC50 [3] [µM]	IC50 [4] [µM]	IC50 [5] [µM]	Compound
221 to 223 °C (dec.)	1.99	1.22	0.13	> 10	–	N#Cc1c(-c2ccccc2)cc(N2CCOCC2)nc1-c1cccc(O)c1 [Compound 9a]
240 to 242 °C	> 10	> 10	0.63	> 10	2.8	N#Cc1c(-c2ccc(Oc3ccccc3)cc2)cc(N2CCOCC2)nc1-c1cccc(O)c1 [Compound 9b]
216 to 217 °C	> 10	1.37	1.79	2.18	–	COc1ccc(-c2cc(N3CCOCC3)nc(-c3cccc(O)c3)c2C#N)cc1 [Compound 9c]
208 to 209 °C (dec.)	2.34	1.09	0.63	1.64	–	COc1cccc(-c2cc(N3CCOCC3)nc(-c3cccc(O)c3)c2C#N)c1 [Compound 9d]
